Consider 22 molecules from US8148391B2 (Cephalon, Inc., priority 2006, dated 2012).

Read-outs that look alike come from different tables or passages of the source.

In assay [1] the target is T1, c-Met (cytoplasmic domain) (Homo sapiens, UniProt P08581).
T1 construct: 10 ng/mL c-Met (cytoplasmic domain, Invitrogen Corporation #PV3143); purchased Invitrogen Corporation PV3143
As to the kind of experiment: c-Met Kinase Assay (same methods as for ALK, with modifications). The format is biochemical. Put shortly:
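Steps: coat wells with PLC-γ (10 μg/mL, Tris-buffered saline); add 10 ng/mL c-Met cytoplasmic domain to initiate; incubate 15 min, 37° C; detect phosphoproduct via Eu-N1 PT66 antibody.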

The target of assay [2] is T2, baculovirus-expressed ALK (Homo sapiens, UniProt Q9UM73).
T2 construct: host or cells: baculovirus expression system
The experiment in a line: ALK Kinase Assay (ELISA-type, time-resolved fluorescence). The format is biochemical. Put shortly:
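Wells were coated with phospholipase C-γ at 10 μg/mL in Tris-buffered saline. Adding 30 ng/ml enzyme started the reaction, which ran at 37° C for 15 minutes before Eu-N1 PT66 antibody detection. Percent inhibition versus log10 concentration gave IC50 by variable-slope fit.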

[3] abbreviates: c-Met kinase inhibition, 1 μM ATP, read-out: cMet Activity.
Where [4] appears, read: ALK kinase inhibition, 1 μM ATP, read-out: ALK Activity.
Where [5] appears, read: 1 μM ATP (Km level), 10 ng/mL c-Met, read-out: cMet Activity (c-Met kinase inhibition, IC50 class).
Where [6] appears, read: 1 μM ATP (Km level), 30 ng/ml ALK, 37° C., 15 minutes, read-out: ALK Activity (ALK kinase inhibition, IC50 class).
Where [7] appears, read: 1 μM ATP (Km level), read-out: cMet Activity (c-Met Kinase Inhibition, IC50).
Setting [8] is: 1 μM ATP (Km level), read-out: ALK Activity (ALK Kinase Inhibition, IC50).
[9] abbreviates: c-Met kinase inhibition, 1 μM ATP (Km level), read-out: cMet Activity.
Where [10] appears, read: ALK kinase inhibition, 1 μM ATP (Km level), read-out: ALK Activity.

T2 sequence (Q9UM73 19-1620): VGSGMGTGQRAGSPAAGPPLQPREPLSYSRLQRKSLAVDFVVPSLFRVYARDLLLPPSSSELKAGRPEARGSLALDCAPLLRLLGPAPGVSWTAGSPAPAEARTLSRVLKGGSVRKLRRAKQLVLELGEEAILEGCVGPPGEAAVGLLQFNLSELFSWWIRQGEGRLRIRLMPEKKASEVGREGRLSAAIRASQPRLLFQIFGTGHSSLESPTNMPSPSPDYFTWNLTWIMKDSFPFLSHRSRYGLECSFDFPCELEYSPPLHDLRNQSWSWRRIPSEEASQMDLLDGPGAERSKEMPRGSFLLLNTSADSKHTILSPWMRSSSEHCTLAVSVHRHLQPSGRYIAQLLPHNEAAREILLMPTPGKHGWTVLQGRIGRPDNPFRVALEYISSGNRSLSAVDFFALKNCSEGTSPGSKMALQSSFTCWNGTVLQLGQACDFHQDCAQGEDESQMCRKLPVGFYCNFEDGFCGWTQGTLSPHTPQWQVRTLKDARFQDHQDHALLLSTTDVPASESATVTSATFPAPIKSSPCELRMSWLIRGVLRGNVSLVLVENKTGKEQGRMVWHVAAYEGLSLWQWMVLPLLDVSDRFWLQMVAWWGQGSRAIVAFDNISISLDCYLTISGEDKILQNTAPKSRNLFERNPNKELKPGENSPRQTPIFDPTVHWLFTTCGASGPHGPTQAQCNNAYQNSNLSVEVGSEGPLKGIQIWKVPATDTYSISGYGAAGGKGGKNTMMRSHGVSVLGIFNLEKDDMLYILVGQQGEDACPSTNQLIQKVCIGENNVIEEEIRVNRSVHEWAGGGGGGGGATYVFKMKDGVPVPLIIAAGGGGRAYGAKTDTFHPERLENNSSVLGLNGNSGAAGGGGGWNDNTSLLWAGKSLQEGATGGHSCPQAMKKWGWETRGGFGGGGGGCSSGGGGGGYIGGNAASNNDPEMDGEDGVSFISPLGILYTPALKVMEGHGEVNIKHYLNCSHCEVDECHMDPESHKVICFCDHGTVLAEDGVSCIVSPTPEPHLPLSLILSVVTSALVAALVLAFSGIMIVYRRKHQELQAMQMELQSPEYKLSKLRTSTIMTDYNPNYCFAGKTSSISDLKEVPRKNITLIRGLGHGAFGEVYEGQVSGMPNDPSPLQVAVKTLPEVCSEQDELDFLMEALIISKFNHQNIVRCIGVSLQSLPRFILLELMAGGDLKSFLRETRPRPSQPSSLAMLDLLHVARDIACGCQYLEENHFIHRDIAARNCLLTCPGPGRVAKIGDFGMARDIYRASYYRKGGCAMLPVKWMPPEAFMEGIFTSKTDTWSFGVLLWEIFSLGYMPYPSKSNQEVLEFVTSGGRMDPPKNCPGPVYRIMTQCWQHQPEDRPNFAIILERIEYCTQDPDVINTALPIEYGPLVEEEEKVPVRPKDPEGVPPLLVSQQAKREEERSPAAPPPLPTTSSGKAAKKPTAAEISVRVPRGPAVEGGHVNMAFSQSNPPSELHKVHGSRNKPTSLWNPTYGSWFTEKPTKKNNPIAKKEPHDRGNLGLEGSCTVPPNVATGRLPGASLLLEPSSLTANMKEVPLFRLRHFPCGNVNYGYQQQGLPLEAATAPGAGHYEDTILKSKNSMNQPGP
T1 sequence (P08581 956-1390 limits assumed): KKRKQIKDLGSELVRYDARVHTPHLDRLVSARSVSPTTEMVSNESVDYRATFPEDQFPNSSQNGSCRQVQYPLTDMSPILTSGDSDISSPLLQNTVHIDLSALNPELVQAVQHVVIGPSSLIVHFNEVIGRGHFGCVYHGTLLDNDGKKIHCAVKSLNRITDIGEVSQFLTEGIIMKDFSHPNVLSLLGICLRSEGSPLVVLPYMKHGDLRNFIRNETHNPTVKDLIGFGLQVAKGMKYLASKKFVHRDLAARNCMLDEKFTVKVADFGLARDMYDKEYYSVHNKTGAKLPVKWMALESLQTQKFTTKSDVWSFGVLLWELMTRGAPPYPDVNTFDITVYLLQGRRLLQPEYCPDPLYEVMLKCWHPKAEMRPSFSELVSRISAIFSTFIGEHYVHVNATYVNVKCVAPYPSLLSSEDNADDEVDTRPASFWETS

For the molecule `C=CCOc1cccc(F)c1Nc1nc(Nc2ccc3c(c2)CCOC(=O)N3C)ncc1Cl` [Example 1780, 2-[4-(2-Allyloxy-6-fluoro-phenylamino)-5-chloro-pyrimidin-2-ylamino]-5-methyl-8,9-dihydro-5H-7-oxa-5-aza-benzocyclohepten-6-one], the IC50 in assay [1] (setting [3]) and in assay [2] (setting [4]) was less than 0.1 µM in each case.
Regarding `COc1cc2c(cc1Nc1ncc(Cl)c(Nc3ccc(N4CCOCC4)cc3OC)n1)CCN(C(=O)CN(C)C)CC2` [Example 1121, 1-{7-[5-Chloro-4-(2-methoxy-4-morpholin-4-yl-phenylamino)-pyrimidin-2-ylamino]-8-methoxy-1,2,4,5-tetrahydro-benzo[d]azepin-3-yl}-2-dimethylamino-ethanone], the IC50 is greater than 10 µM in assay [1] (setting [5]) and less than 0.1 µM in assay [2] (setting [6]).
Turning to `COc1cc2c(cc1Nc1ncc(Cl)c(Nc3ccccc3S(=O)(=O)N3CCC(O)C3)n1)CCC(N1CCN(C)CC1)CC2` (centres unmarked) [Example 1098, 1-(2-{5-Chloro-2-[3-methoxy-7-(4-methyl-piperazin-1-yl)-6,7,8,9-tetrahydro-5H-benzocyclohepten-2-ylamino]-pyrimidin-4-ylamino}-benzenesulfonyl)-pyrrolidin-3-ol], the figures for the IC50 in assay [1] (setting [5]) and in assay [2] (setting [6]) were 1 to 10 µM and less than 0.1 µM, respectively.
On to `COc1cc2c(cc1Nc1ncc(Cl)c(Nc3ccccc3OC)n1)CCOC(=O)N2C` [Example 1508, 2-[5-Chloro-4-(2-methoxy-phenylamino)-pyrimidin-2-ylamino]-3-methoxy-5-methyl-8,9-dihydro-5H-7-oxa-5-aza-benzocyclohepten-6-one], for which the results for the IC50 in assay [1] (setting [3]) and in assay [2] (setting [4]) were greater than 10 µM and less than 0.1 µM, respectively.
For `COCCN1CCc2ccc(Nc3ncc(Cl)c(Nc4c(F)cccc4OC4CCOCC4)n3)cc2CC1` [Example 1282, 5-Chloro-N(4)-[2-fluoro-6-(tetrahydro-pyran-4-yloxy)-phenyl]-N(2)-[3-(2-methoxy-ethyl)-2,3,4,5-tetrahydro-1H-3-benzazepin-7-yl]-pyrimidine-2,4-diamine], the IC50 is 1 to 10 µM in assay [1] (setting [5]) and less than 0.1 µM in assay [2] (setting [6]).
As for `COc1ccc(Nc2nc(Nc3cc4c(cc3OC)CCN(CC(=O)N(C)C)CC4)ncc2Cl)c(S(=O)(=O)N(C)C)c1` [Example 820, 2-{7-[5-Chloro-4-(2-dimethylsulfamoyl-4-methoxy-phenylamino)-pyrimidin-2-ylamino]-8-methoxy-1,2,4,5-tetrahydro-benzo[d]azepin-3-yl}-N,N-dimethyl-acetamide], the IC50 in assay [1] (setting [7]) is greater than 10 µM; in assay [2] (setting [8]) it was less than 0.1 µM.
Regarding `COCCN1CCc2ccc(Nc3ncc(Cl)c(Nc4cccc5c4ncn5C)n3)cc2CC1` [Example 1006, 5-Chloro-N*2*-[3-(2-methoxy-ethyl)-2,3,4,5-tetrahydro-1H-benzo[d]azepin-7-yl]-N*4*-(1-methyl-1H-benzoimidazol-4-yl)-pyrimidine-2,4-diamine], the IC50 in assay [1] (setting [7]) was 1 to 10 µM; in assay [2] (setting [8]), 0.1 to 1 µM.
On to `CCN1C(=O)CCCc2ccc(Nc3ncc(Cl)c(Nc4ccccc4OCC#N)n3)cc21` [Example 1230, {2-[5-Chloro-2-(1-ethyl-2-oxo-2,3,4,5-tetrahydro-1H-1-benzazepin-8-ylamino)-pyrimidin-4-ylamino]-phenoxy}-acetonitrile], for which the IC50 in assay [1] (setting [5]) and in assay [2] (setting [6]) was less than 0.1 µM throughout.
`CS(=O)(=O)N[C@@H]1CCCC[C@H]1Nc1nc(Nc2ccc3c(c2)C2CCC3CN(S(C)(=O)=O)C2)ncc1Cl` (stereo partly drawn) [Example 294, N-{(1R,2R)-2-[5-Chloro-2-(10-methanesulfonyl-10-aza-tricyclo[6.3.2.0*2,7*]trideca-2,4,6-trien-4-ylamino)-pyrimidin-4-ylamino]-cyclohexyl}-methanesulfonamide]: the IC50 in assay [1] (setting [9]) is 0.1 to 1 µM; in assay [2] (setting [10]), less than 0.1 µM.
As to `CNC(=O)c1scc(C)c1Nc1nc(Nc2ccc3c(c2)CN(C)C(=O)CC3)ncc1Cl` [Example 1799, 3-[5-Chloro-2-(2-methyl-3-oxo-2,3,4,5-tetrahydro-1H-benzo[c]azepin-8-ylamino)-pyrimidin-4-ylamino]-4-methyl-thiophene-2-carboxylic acid methylamide], the IC50 in assay [1] (setting [3]) and in assay [2] (setting [4]) was less than 0.1 µM throughout.
Take `COc1cc2c(cc1Nc1ncc(Cl)c(N[C@H]3[C@@H](C(N)=O)[C@@H]4C=C[C@H]3C4)n1)CCN(CC(=O)N1CCN(C)CC1)CC2` [Example 1539, (1S,2S,3R,4R)-3-(5-Chloro-2-{8-methoxy-3-[2-(4-methyl-piperazin-1-yl)-2-oxo-ethyl]-2,3,4,5-tetrahydro-1H-3-benzazepin-7-ylamino}-pyrimidin-4-ylamino)-bicyclo[2.2.1]hept-5-ene-2-carboxylic acid amide]: the IC50 in assay [1] (setting [3]) was greater than 10 µM; in assay [2] (setting [4]) it was less than 0.1 µM.
Turning to `CCN1C(=O)CCCc2c1ccc(Nc1ncc(Cl)c(Nc3ccccc3-c3ncccc3C)n1)c2OC` [Example 984, 7-{5-Chloro-4-[2-(3-methyl-pyridin-2-yl)-phenylamino]-pyrimidin-2-ylamino}-1-ethyl-6-methoxy-1,3,4,5-tetrahydro-benzo[b]azepin-2-one], the IC50 was greater than 10 µM in assay [1] (setting [7]) and less than 0.1 µM in assay [2] (setting [8]).
As for `CN1C(=O)CCC(C)(C)c2cc(Nc3ncc(Cl)c(N[C@H]4[C@@H](C(N)=O)[C@@H]5C=C[C@H]4C5)n3)ccc21` (relative stereo) [Example 386, (2-exo, 3-exo)-3-[5-Chloro-2-(1,5,5-trimethyl-2-oxo-2,3,4,5-tetrahydro-1H-benzo[b]azepin-7-ylamino)-pyrimidin-4-ylamino]-bicyclo[2.2.1]hept-5-ene-2-carboxylic acid amide], the IC50 is 0.1 to 1 µM in assay [1] (setting [9]) and less than 0.1 µM in assay [2] (setting [10]).
Turning to `COc1cc(N2CCOCC2)ccc1Nc1nc(Nc2cccc3c2OCCCC3(C)C)ncc1Cl` [Example 876, 5-Chloro-N*2*-(5,5-dimethyl-2,3,4,5-tetrahydro-benzo[b]oxepin-9-yl)-N*4*-(2-methoxy-4-morpholin-4-yl-phenyl)-pyrimidine-2,4-diamine], the IC50 in assay [1] (setting [7]) is greater than 10 µM; in assay [2] (setting [8]), 0.1 to 1 µM.
As for “7-[5-Chloro-4-(2-methoxy-4-morpholin-4-yl-phenylamino)-pyrimidin-2-ylamino]-1-ethyl-5,5-dimethyl-1,3,4,5-tetrahydro-benzo[b]azepin-2-one [Example 393]”, the IC50 was greater than 10 µM in assay [1] (setting [9]) and less than 0.1 µM in assay [2] (setting [10]).
Turning to `CNC(=O)c1ccccc1Nc1nc(Nc2ccc3c(c2)CCC(=O)CC3)ncc1Cl` [Example 172, 2-[5-Chloro-2-(7-oxo-6,7,8,9-tetrahydro-5H-benzocyclo-hepten-2-ylamino)-pyrimidin-4-ylamino]-N-methyl-benzamide], the IC50 in assay [1] (setting [9]) and in assay [2] (setting [10]) was less than 0.1 µM each time.
On to `CNC(=O)c1ccccc1Nc1nc(Nc2cccc3c2N(C)CCNC3=O)ncc1Cl` [Example 544, 2-[5-Chloro-2-(1-methyl-5-oxo-2,3,4,5-tetrahydro-1H-benzo[e][1,4]diazepin-9-ylamino)pyrimidin-4-ylamino]-N-methyl-benzamide], for which the IC50 was greater than 10 µM in assay [1] (setting [7]) and less than 0.1 µM in assay [2] (setting [8]).
In the case of `COc1ccc(Nc2nc(Nc3cc4c(cc3OC)CCN(CC3COCCO3)CC4)ncc2Cl)c(-n2cccn2)c1` (centres unmarked) [Example 636, 5-Chloro-N*2*-(3-[1,4]dioxan-2-ylmethyl-8-methoxy-2,3,4,5-tetrahydro-1H-benzo[d]azepin-7-yl)-N*4*-(4-methoxy-2-pyrazol-1-yl-phenyl)-pyrimidine-2,4-diamine], the IC50 in assay [1] (setting [7]) is greater than 10 µM; in assay [2] (setting [8]), less than 0.1 µM.
For the molecule `COc1cc2c(cc1Nc1ncc(Cl)c(Nc3cc(Cl)ccc3OC)n1)CCN(CC(F)F)CC2` [Example 768, 5-Chloro-N*4*-(5-chloro-2-methoxy-phenyl)-N*2*-[3-(2,2-difluoro-ethyl)-8-methoxy-2,3,4,5-tetrahydro-1H-benzo[d]azepin-7-yl]-pyrimidine-2,4-diamine], the figures for the IC50 in assay [1] (setting [7]) and in assay [2] (setting [8]) were greater than 10 µM and 0.1 to 1 µM, respectively.
Regarding `COc1cc2c(cc1Nc1ncc(Cl)c(Nc3ccccc3S(=O)(=O)N(C)C)n1)CCN(C(=O)C(C)(C)N)CC2` [Example 1207, 2-{2-[3-(2-Amino-2-methyl-propionyl)-8-methoxy-2,3,4,5-tetrahydro-1H-benzo[d]azepin-7-ylamino]-5-chloro-pyrimidin-4-ylamino}-N,N-dimethyl-benzenesulfonamide], the IC50 is 1 to 10 µM in assay [1] (setting [5]) and less than 0.1 µM in assay [2] (setting [6]).
In the case of `CCN([C@@H]1CCCC[C@H]1Nc1nc(Nc2ccc3c(c2)C(C)(C)CCC(=O)N3)ncc1Cl)S(C)(=O)=O` [Example 1675, N-{(1R,2R)-2-[5-Chloro-2-(5,5-dimethyl-2-oxo-2,3,4,5-tetrahydro-1H-benzo[b]azepin-7-ylamino)-pyrimidin-4-ylamino]-cyclohexyl}-N-ethyl-methanesulfonamide], the IC50 in assay [1] (setting [3]) is 1 to 10 µM; in assay [2] (setting [4]), less than 0.1 µM.
Take `CCN1C(=O)OCCc2ccc(Nc3ncc(Cl)c(Nc4c(F)cccc4C(=O)NC)n3)cc21` [Example 1882, 2-[5-Chloro-2-(5-ethyl-6-oxo-5,6,8,9-tetrahydro-7-oxa-5-aza-benzocyclohepten-3-ylamino)-pyrimidin-4-ylamino]-3-fluoro-N-methyl-benzamide]: the IC50 in assay [1] (setting [9]) and in assay [2] (setting [10]) was less than 0.1 µM each time.
